Here are results for 24 compounds from patent publication US9777005B2 (Takeda Pharmaceutical Company Limited, priority 2012, dated 2017).

This experiment has as its target T1, human M1 receptor (hCHRM1) (Homo sapiens, UniProt P11229).
T1 construct: expressed in transfected cells; host or cells: CHO-K1
T1 sequence (P11229 1-460): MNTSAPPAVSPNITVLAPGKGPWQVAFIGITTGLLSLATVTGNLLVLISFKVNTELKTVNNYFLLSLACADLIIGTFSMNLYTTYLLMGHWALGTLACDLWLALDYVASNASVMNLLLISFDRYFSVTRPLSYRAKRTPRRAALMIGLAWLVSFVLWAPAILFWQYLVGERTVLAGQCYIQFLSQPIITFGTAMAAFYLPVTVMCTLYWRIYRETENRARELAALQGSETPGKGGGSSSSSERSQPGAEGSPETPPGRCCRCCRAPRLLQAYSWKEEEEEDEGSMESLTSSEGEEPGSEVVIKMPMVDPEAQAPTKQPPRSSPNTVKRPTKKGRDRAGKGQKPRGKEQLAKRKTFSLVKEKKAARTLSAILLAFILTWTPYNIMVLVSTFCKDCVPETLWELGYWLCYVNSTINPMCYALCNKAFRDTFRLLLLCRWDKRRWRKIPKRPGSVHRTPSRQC
As to the kind of experiment: Measurement of M1 receptor positive allosteric modulator (M1PAM) activity, calcium fluorescence (FLIPRtetra) in CHO-K1 cells in the presence of acetylcholine at EC20. The following applies: in the presence of acetylcholine at EC20 (final 0.6 nM), CHO-K1 cells expressing hCHRM1; for EC50: inflection point of M1PAM activity, read-out: IP value; for activity (%) at 10 μM: test compound 10 μM. The experiment is classed as cell-based. The procedure, abridged:
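PAM activity was measured as calcium flux by FLIPRtetra over 1 min after co-addition of compound and EC20 acetylcholine (final 0.6 nM) to Fluo-4-loaded hCHRM1 CHO-K1 cells. The response was scaled between DMSO (0%) and 1 μM acetylcholine (100%), and the inflection point of the concentration curve gives the IP value.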

Take `Cc1cc(-c2ccc(CN3Cc4ccnc(Oc5ccc(C(F)F)cc5F)c4C3=O)cc2)cnn1` [Example 392, 4-(4-(difluoromethyl)-2-fluorophenoxy)-2-(4-(6-methylpyridazin-4-yl)benzyl)-1,2-dihydro-3H-pyrrolo[3,4-c]pyridin-3-one]: the EC50 stood at 16 nM and the “activity (%) at 10 μM” value came to 105%.

As for `Cn1cc(-c2ccc(CN3Cc4ccnc(Oc5ccc(C(O)C(F)(F)F)cc5F)c4C3=O)cc2)cn1` (stereo not drawn) [Example 393, 4-(2-fluoro-4-(2,2,2-trifluoro-1-hydroxyethyl)phenoxy)-2-(4-(1-methyl-1H-pyrazol-4-yl)benzyl)-1,2-dihydro-3H-pyrrolo[3,4-c]pyridin-3-one], the EC50 was determined as 5 nM and the “activity (%) at 10 μM” value turned out to be 89%.

Take `CC(O)c1ccc(Oc2nccc3c2C(=O)N(Cc2ccc(-c4cnn(C)c4)cc2)C3)c(F)c1` (stereo not drawn) [Example 394, 4-(2-fluoro-4-(1-hydroxyethyl)phenoxy)-2-(4-(1-methyl-1H-pyrazol-4-yl)benzyl)-1,2-dihydro-3H-pyrrolo[3,4-c]pyridin-3-one]: the EC50 is 7.1 nM and the “activity (%) at 10 μM” value was determined as 109%.

In the case of `Cn1ccc(-c2ccc(CN3Cc4ncnc(Oc5c(F)cccc5F)c4C3=O)cc2)n1` [Example 395, 4-(2,6-difluorophenoxy)-6-(4-(1-methyl-1H-pyrazol-3-yl)benzyl)-6,7-dihydro-5H-pyrrolo[3,4-d]pyrimidin-5-one], the EC50 was found to be 65 nM and the “activity (%) at 10 μM” value is reported as 96%.

On to `Cn1cc(-c2ccc(CN3Cc4ncnc(Oc5c(F)cccc5Cl)c4C3=O)cc2)cn1` [Example 396, 4-(2-chloro-6-fluorophenoxy)-6-(4-(1-methyl-TH-pyrazol-4-yl)benzyl)-6,7-dihydro-5H-pyrrolo[3,4-d]pyrimidin-5-one], for which the EC50 is 33 nM and the “activity (%) at 10 μM” value came out at 95%.

On to `Cn1cc(-c2ccc(CN3Cc4ccnc(Oc5c(F)cccc5Cl)c4C3=O)cc2)cn1` [Example 397, 4-(2-chloro-6-fluorophenoxy)-2-(4-(1-methyl-1H-pyrazol-4-yl)benzyl)-1,2-dihydro-3H-pyrrolo[3,4-c]pyridin-3-one], for which the EC50 was 25 nM and the “activity (%) at 10 μM” value came to 95%.

On to `Cc1cc(-c2ccc(CN3Cc4cccc(Oc5c(F)cc(C#N)cc5F)c4C3=O)cc2)cnn1` [Example 398, 3,5-difluoro-4-((2-(4-(6-methylpyridazin-4-yl)benzyl)-3-oxo-2,3-dihydro-1H-isoindol-4-yl)oxy)benzonitrile], for which the EC50 came to 20 nM and the “activity (%) at 10 μM” value is given as 99%.

Take `Cc1nn(C)cc1-c1ccc(CN2Cc3ccnc(OC4CCC4)c3C2=O)cc1` [Example 403, 4-(cyclobutyloxy)-2-(4-(1,3-dimethyl-1H-pyrazol-4-yl)benzyl)-1,2-dihydro-3H-pyrrolo[3,4-c]pyridin-3-one]: the EC50 worked out at 57 nM and the “activity (%) at 10 μM” value is listed as 102%.

On to `CCn1cc(-c2ccc(CN3Cc4ccnc(OC5CCC5)c4C3=O)cc2)cn1` [Example 404, 4-(cyclobutyloxy)-2-(4-(1-ethyl-1H-pyrazol-4-yl)benzyl)-1,2-dihydro-3H-pyrrolo[3,4-c]pyridin-3-one], for which the EC50 is 53 nM and the “activity (%) at 10 μM” value is 87%.

Turning to `Cn1cc(-c2ccc(CN3Cc4ccnc(Oc5ccc(CC#N)cc5F)c4C3=O)cc2)cn1` [Example 405, (3-fluoro-4-((2-(4-(1-methyl-1H-pyrazol-4-yl)benzyl)-3-oxo-2,3-dihydro-1H-pyrrolo[3,4-c]pyridin-4-yl)oxy)phenyl)acetonitrile], the EC50 is 1.8 nM and the “activity (%) at 10 μM” value is 95%.

For the compound `Cn1cc(-c2ccc(CN3Cc4ccnc(Oc5cc(CC#N)ccc5F)c4C3=O)cc2)cn1` [Example 406, (4-fluoro-3-((2-(4-(1-methyl-1H-pyrazol-4-yl)benzyl)-3-oxo-2,3-dihydro-1H-pyrrolo[3,4-c]pyridin-4-yl)oxy)phenyl)acetonitrile], the EC50 was found to be 40 nM and the “activity (%) at 10 μM” value was 97%.

On to `Cc1cc(-c2ccc(CN3Cc4ccnc(Oc5ccc(C(F)(F)F)cc5C)c4C3=O)cc2)cnn1` [Example 407, 2-(4-(6-methylpyridazin-4-yl)benzyl)-4-(2-methyl-4-(trifluoromethyl)phenoxy)-1,2-dihydro-3H-pyrrolo[3,4-c]pyridin-3-one], for which the EC50 stood at 74 nM and the “activity (%) at 10 μM” value is 89%.

With `Cn1cc(-c2ccc(CN3Cc4ccnc(Oc5ccc(C(C)(C)O)cc5F)c4C3=O)cc2)cn1` [Example 408, 4-(2-fluoro-4-(2-hydroxypropan-2-yl)phenoxy)-2-(4-(1-methyl-1H-pyrazol-4-yl)benzyl)-1,2-dihydro-3H-pyrrolo[3,4-c]pyridin-3-one], the EC50 was determined as 5.6 nM and the “activity (%) at 10 μM” value is 99%.

For the compound `Cn1cc(-c2ccc(CN3Cc4ccnc(Oc5ccc(C(C)(C)C#N)cc5F)c4C3=O)cc2)cn1` [Example 409, 2-(3-fluoro-4-((2-(4-(1-methyl-1H-pyrazol-4-yl)benzyl)-3-oxo-2,3-dihydro-1H-pyrrolo[3,4-c]pyridin-4-yl)oxy)phenyl)-2-methylpropanenitrile], the EC50 was 3.4 nM and the “activity (%) at 10 μM” value is 96%.

As for `Cc1cc(-c2ccc(CN3Cc4ccnc(Oc5ccc(C(C)(C)F)cc5F)c4C3=O)cc2)cnn1` [Example 410, 4-(2-fluoro-4-(2-fluoropropan-2-yl)phenoxy)-2-(4-(6-methylpyridazin-4-yl)benzyl)-1,2-dihydro-3H-pyrrolo[3,4-c]pyridin-3-one], the EC50 was determined as 19 nM and the “activity (%) at 10 μM” value is on record as 99%.

Regarding `C=C(C)c1ccc(Oc2nccc3c2C(=O)N(Cc2ccc(-c4cnnc(C)c4)cc2)C3)c(F)c1` [Example 411, 4-(2-fluoro-4-(prop-1-en-2-yl)phenoxy)-2-(4-(6-methylpyridazin-4-yl)benzyl)-1,2-dihydro-3H-pyrrolo[3,4-c]pyridin-3-one], the EC50 amounted to 61 nM and the “activity (%) at 10 μM” value came out at 102%.

With `Cc1nn(C)cc1-c1ccc(CN2Cc3ccnc(Oc4ccc(C(C)(C)O)cc4F)c3C2=O)cc1` [Example 412, 2-(4-(1,3-dimethyl-1H-pyrazol-4-yl)benzyl)-4-(2-fluoro-4-(2-hydroxypropan-2-yl)phenoxy)-1,2-dihydro-3H-pyrrolo[3,4-c]pyridin-3-one], the EC50 was 8 nM and the “activity (%) at 10 μM” value amounted to 101%.

As to `Cn1ccc(-c2ccc(CN3Cc4ccnc(Oc5ccc(C(C)(C)O)cc5F)c4C3=O)cc2)n1` [Example 413, 4-(2-fluoro-4-(2-hydroxypropan-2-yl)phenoxy)-2-(4-(1-methyl-1H-pyrazol-3-yl)benzyl)-1,2-dihydro-3H-pyrrolo[3,4-c]pyridin-3-one], the EC50 is 10 nM and the “activity (%) at 10 μM” value stood at 104%.

As to `Cc1cc(C)c(Oc2nccc3c2C(=O)N(Cc2ccc(-c4ccn(C)n4)cc2)C3)c(F)c1` [Example 414, 4-(2-fluoro-4,6-dimethylphenoxy)-2-(4-(1-methyl-1H-pyrazol-3-yl)benzyl)-1,2-dihydro-3H-pyrrolo[3,4-c]pyridin-3-one], the EC50 was 69 nM and the “activity (%) at 10 μM” value is reported as 103%.

Take `Cc1cc(C)c(Oc2nccc3c2C(=O)N(Cc2ccc(-c4cnn(C)c4)cc2)C3)c(F)c1` [Example 415, 4-(2-fluoro-4,6-dimethylphenoxy)-2-(4-(1-methyl-1H-pyrazol-4-yl)benzyl)-1,2-dihydro-3H-pyrrolo[3,4-c]pyridin-3-one]: the EC50 was 16 nM and the “activity (%) at 10 μM” value came out at 106%.

`Cn1ccc(-c2ccc(CN3Cc4ccnc(Oc5ccc(C(F)(F)F)cc5C#N)c4C3=O)cc2)n1` [Example 416, 2-((2-(4-(1-methyl-1H-pyrazol-3-yl)benzyl)-3-oxo-2,3-dihydro-1H-pyrrolo[3,4-c]pyridin-4-yl)oxy)-5-(trifluoromethyl)benzonitrile]: the EC50 amounted to 13 nM and the “activity (%) at 10 μM” value was 98%.

As to `Cc1cc(C#N)cc(F)c1Oc1nccc2c1C(=O)N(Cc1ccc(-c3ccn(C)n3)cc1)C2` [Example 417, 3-fluoro-5-methyl-4-((2-(4-(1-methyl-1H-pyrazol-3-yl)benzyl)-3-oxo-2,3-dihydro-1H-pyrrolo[3,4-c]pyridin-4-yl)oxy)benzonitrile], the EC50 is 16 nM and the “activity (%) at 10 μM” value was 96%.

Consider `Cc1cn(-c2ccc(CN3Cc4ccnc(Oc5ccc(C(F)(F)F)cc5F)c4C3=O)cc2)cn1` [Example 418, 4-(2-fluoro-4-(trifluoromethyl)phenoxy)-2-(4-(4-methyl-1H-imidazol-1-yl)benzyl)-1,2-dihydro-3H-pyrrolo[3,4-c]pyridin-3-one], for which the EC50 turned out to be 9.1 nM and the “activity (%) at 10 μM” value is recorded as 95%.

In the case of `Cn1cnc(-c2ccc(CN3Cc4ccnc(Oc5ccc(C(F)(F)F)cc5F)c4C3=O)cc2)c1` [Example 419, 4-(2-fluoro-4-(trifluoromethyl)phenoxy)-2-(4-(1-methyl-1H-imidazol-4-yl)benzyl)-1,2-dihydro-3H-pyrrolo[3,4-c]pyridin-3-one], the EC50 was 7.3 nM and the “activity (%) at 10 μM” value is 102%.
